Legend:
[1] = system: ALDH (acetaldehyde dehydrogenase) gene; test: qPCR of ALDH mRNA in HepG2 cells; type: cell-based, human; conditions: HepG2, 10 μM, 1 and 2 h
Description: To evaluate the role of the GFM in ethanol metabolism, the genes of primary enzymes (ADH, ALDH, CYP2E1, and catalase) involved in eliminating ethanol from the body were quantified by real-time qPCR. Particularly, total RNA extracts from HepG2 cells (1×10^6 cells/well) treated with ethanol (0.2 mM) or GFM (10 μg/ml) were prepared using the Trizol method (Invitrogen) after 1, 2, 4 and 24 h after the treatment. And then, cDNA was synthesized from RNA by reverse transcription of 1 μg of total RNA using the Improm-II reverse transcription system (Promega) and oligo dT primers in a total volume of 20 μL. PCR amplification was performed using the primers described in Table 1 (Bioneer, Deajeon, Republic of Korea). Quantitative real-time PCR reactions were run on a Rotor-Gene 6000 (Corbett Research, Sydney, Australia) using SYBR Green PCR Master Mix (Qiagen, Valencia, Calif., USA) in 20 μL reaction mixtures. Each real-time-PCR master mix contained 10 μL 2× enzyme mastermix, 7.0 μL RNase free water, 1 μL of each primer (10 μM each) and 1 μL diluted template. […] Relative sample expression levels were calculated using Rotor-Gene 6000 Series Software 1.7 and were expressed relative to glyceraldehyde 3-phosphate dehydrogenase and corrected for between-run variability. Data for the experimental samples were expressed as a percentage of the internal control gene. […]

[2] = male, BALB/c, mouse, in vivo, 1 h
Description: Male BALB/c mice (7-week old) were purchased from Samtaco (Osan, Kyunggi-do, Republic of Korea), and were adapted to laboratory conditions (temperature: 20±2° C., relative humidity: 50%, light/dark cycle: 12 h) for 1 week. […] Perfused liver tissues from the treated mice were prepared using the Trizol method (Invitrogen, USA).
The enzymatic analysis was conducted with ALDH according to the method of Lundquist (Lundquist F. et al., Biochem. J., 68:172-177, 1958; Lundquist F. et al., In: Bergmeier H U (ed) Methods of enzymatic analysis. 2nd ed. Weinheim/New York and London, 230-257, 1974). This enzymatic test for alcohol utilizes the coenzyme NAD and ADH. The amount of NADH formed is stoichiometric to the amount of acetaldehyde. NADH was determined by light absorbance at 365 nm.

[3] = Side effects: body weights, organ masses, symptoms after administration; conditions: ethanol only (300 μl of 20% ethanol oral), 8 h
Description: (§1) GFM suspended in saline solution was orally administrated (25 mg/kg) and CTD dried and then resolved in saline solution (50 mg/kg) was used as positive control (50 mg/kg). Before the administration, the experimental animals fasted 4 hours, and after the administration additional 1 hour of fasting was performed.

[4] = Hepatoprotective effect: serum GOT and GPT after oral ethanol; conditions: 20% ethanol only, 300 μl oral, 8 h after ethanol
Description: as §1

HepG2 cells = test: Cytotoxicity assay by LDH release; type: cell-based, human; conditions: HepG2, ethanol 200 mM
Description: HepG2 human hepatoma cells (Korean Cell Line Bank, Seoul, Republic of Korea) were grown in RPMI1640 complete medium (Hyclone, Logan, Utah, USA) supplemented with 10% fetal bovine serum, 100 U/mL penicillin, and 100 μg/mL streptomycin (Invitrogen, Carlsbad, Calif., USA). The cultures were maintained under 5% CO2 at 37° C. in tissue culture flasks. For all experiments, cells were grown to >90% confluency and subjected to no more than 20 cell passages. The medium was changed every 2-3 days. Subconfluent cells were harvested and seeded at a density of 5×10^5 cells or 1.5×10^6 cells in poly-L-lysine-coated 35 mm or 60 mm culture plates. […]
Cytotoxicity of the GFM was investigated by measuring lactate dehydrogenase (LDH) release from HepG2 cells. That is, the cytotoxicity induced by the GFM in HepG2 cells was quantified by measuring LDH release at varying ranges of concentration (1-1,000 μg/mL). Cytotoxicity in experimental samples was determined as % LDH release, and the data from triplicate cultures were expressed as the mean±standard deviation. Concentration-dependent cytotoxicity determined as % LDH release was compared with non-treated control cells (Ctrl) and H2O2 (1 mM)-treated control was used as a positive control. […] Formazan was quantified spectrophotometrically by measuring its absorbance at 490 nm (Spectra Max 340, Molecular Devices, Sunnyvale, Calif., USA).

CCCCC/C=C\C/C=C\CCCCCCCC(=O)O [LA, linoleic acid]
ALDH mRNA expression induced by fatty acid [1]: effectiveness of GFM might be mainly from LA

CCO [ethanol]
serum ethanol detected by GC [2]: 12.2%
Body weight [3]: 21.00 ± 0.57 g
Liver mass [3]: 1.31 ± 0.11 g
Spleen mass [3]: 0.09 ± 0.01 g
serum GOT [4]: 259.00 ± 17.44 IU/L
serum GPT [4]: 150.50 ± 10.13 IU/L
cytotoxicity (% LDH release) (HepG2 cells): not cytotoxic

From US9901608B2, “Composition and method for enhancing alcohol metabolism” (GANGNEUNG-WONJU NATIONAL UNIVERSITY INDUSTRY ACADEMY …, priority 2014, dated 2018)
